The values below come from paper PMC6197077 (Frontiers in Immunology, 2018).

Data set [1] deals with P14 TCR (TCR:pMHC, D^b D227K). It counts as binding, mice. As to conditions: for peak bond lifetime under force, CD8-null: BFP force-clamp, absence of CD8 (CD8-null pMHC), peak of force curve, >1,000 bond lifetimes per curve; for bond lifetime by BFP for the TCR alone: restated range in Discussion; for bond lifetime at ~10 pN, CD8-null: ~10 pN of force, CD8-null (Figures 3D,E).

Data set [2] relates to P14 CD8+ T cells. It counts as cell-based, mice.
The subject of data set [3] is polyclonal CD8+ T cells. It is filed as cell-based, mice. The settings on record: for Nur77 MFI: polyclonal CD8 T cells, 1 uM (Figure 6F).
The next data set relates to pMHC (T-2D^b cell line). The settings on record: competition on T-2D^b cell line; versus 9-mer 41C; ref [8] Gairin et al.; cited from earlier work. From the text: (§1) The question is to what extent loading of MHC affects the T cell response and their biology.
Another data set deals with P14 TCR. As to conditions: cited from earlier work; for Kd: SPR.
For data set [4], the system named is P14 TCR with CD8 coreceptor (TCR:pMHC:CD8). It is filed as binding, mice. As to conditions: for peak bond lifetime under force, CD8-intact: BFP force-clamp, CD8-intact pMHC, peak of force curve, >1,000 bond lifetimes per curve; for bond lifetime at ~10 pN, CD8-intact: ~10 pN of force, CD8-intact (Figures 3F,G).
Data set [5] deals with P14 CD8+ T cells. It is filed as cell-based, mice. As to conditions: for ligand potency: at equivalent peptide doses, not factoring in peptide loading; for %Nur77+: representative of 3 experiments, n = 3-4 mice; for signal strength as measured by Nur77 upregulation: P14 CD8 T cells re-stimulated ex vivo.
Data set [6] concerns P14 CD8+ T cells. It counts as cell-based, mice. As to conditions: for IRF4 MFI at low peptide doses: P14 CD8+ T cells (Figure 4H).
Data set [7] relates to TCR of naïve P14 CD8+ T cells (TCR:pMHC, H2D^b). It is filed as binding, mice. As to conditions: for mean population 2D affinity (AcKa): naïve CD8+ P14 splenocytes, 50 contact cycles per cell, 3 individual experiments; for 2D affinity, result in words: naïve P14 CD8+ T cells.
The test system of data set [8] is TCR and CD8 of naïve P14 CD8+ T cells (TCR:pMHC:CD8, D^b). It is filed as binding, mice. As to conditions: for normalized adhesion bonds, mean bond number (-ln(1-Pa(s))/mpMHC): P14 CD8+ T cells, wild type (CD8-intact) pMHC monomers, 3 individual experiments; for total bond number hierarchy: single P14 T cell probed against all three pMHC (Figure 2B).
The test system of another data set is MHC class I (D^b). The settings on record: terminal cysteine; ref [27], [34]-[36]; cited from earlier work.
The conditions of data set [9]: terminal cysteine; ref [27], [34]-[36]; cited from earlier work.
The test system of data set [10] is polyclonal CD8+ T cells. It counts as cell-based, mice.
Data set [11] relates to T cells interacting with dendritic cells. The settings on record: peptide pulsed DCs, lymph node; versus 41C; ref Henrickson et al. [36]; cited from earlier work.
Description: as §1

[12] abbreviates: Boulter et al., ref [52], read-out: 3D affinity (as restated in Discussion).
[13] abbreviates: P14 CD8+ T cells, D8 p.i., range of peptide doses.

“And” between values parts separate entries of the source, which are not always exact repeats. Equal values may be shown once. “Also recorded” adds a separate entry of the source. Read-outs that look alike come from different tables or passages of the source.

For KAVYNFATCGI [41CGI], the “peak bond lifetime under force, CD8-null” value in [1] is ~ 0.1 s. In addition, the cytokine production result with P14 CD8+ T cells [2] was “significantly diminished cytokine production”. Besides, the “Nur77 MFI” value with polyclonal CD8+ T cells [3] was “not significantly different”. For the same sequence, the “efficiency at competing for pMHC” value with pMHC (T-2D^b cell line) is listed as “six times more efficient”. For the same sequence, the Kd on P14 TCR (setting [12]) was 3.5 µM. For the same sequence, the “peak bond lifetime under force, CD8-intact” value in [4] is ~ 1.5 s. Besides, the “fold increase of peak bond lifetime by CD8 contribution” value in data set [4] (CD8-intact versus CD8-null pMHC) was 15 fold and ~ 15 fold. The ligand potency with P14 CD8+ T cells [5] was 41M > 41C > 41CGI. Moreover, in the data set with P14 CD8+ T cells [6], the “IRF4 MFI at highest peptide dose” value is “did not observe a difference between 41C and 41CGI”; the “IRF4 MFI at low peptide doses” value is “difference in IRF4 MFI”. Also, in data set [7], the “mean population 2D affinity (AcKa)” value was determined as 1.55E-04 μm^4 and the “2D affinity, result in words” value is given as “lowest 2D affinity of the three, it still had a relatively high 2D affinity”. Also, in data set [8], the “normalized adhesion bonds, mean bond number (-ln(1-Pa(s))/mpMHC)” value was determined as 2.93E-02 μm^2 and the “total bond number hierarchy” value is listed as 41M> 41C> 41CGI.

Regarding KAVYNFATC [41C], in data set [1], the “peak bond lifetime under force, CD8-null” value was ~ 0.9 s; the “bond lifetime by BFP for the TCR alone” value lay in the range of 0.8 to 0.9 s; the “bond lifetime at ~10 pN, CD8-null” value is “longer bond lifetime than 41M and dramatically more so than 41CGI; also recorded: no significant difference in bond lifetime between 41M and 41C”. Besides, in the data set with MHC class I (D^b), the “stability in the MHC” value was “decreased stability in the MHC”. In addition, in the data set with P14 CD8+ T cells [2] (41M versus 41C, in our experiments), the sensitivity to antigen entry is “same sensitivity to antigen”. The “functional responses read out by Nur77, IFNγ and IL-2” value in the data set with P14 CD8+ T cells [2] (Discussion) is reported as “larger responses”. For the same sequence, in the data set on polyclonal CD8+ T cells [3], the “Nur77 MFI” value is “not significantly different”. The Kd at P14 TCR (setting [12]) was 2.3 µM. For the same sequence, in the data set on P14 TCR (ref [51]), the “bond lifetime by SPR” value is reported as ~ 0.5 s. In data set [4], the “peak bond lifetime under force, CD8-intact” value is listed as ~ 1.9 s; the “bond lifetime at ~10 pN, CD8-intact” value was “no significant difference in bond lifetime between 41M and 41C”. In the data set on P14 CD8+ T cells [5] (setting [13]), the “%Nur77+” value is “significantly higher frequencies of Nur77+ CD8+ T cells than those stimulated with 41CGI”. Besides, in the data set on P14 CD8+ T cells [5], the “signal strength as measured by Nur77 upregulation” value is on record as “significantly stronger signals than 41CGI stimulated cells” and the ligand potency is recorded as 41M > 41C > 41CGI. Moreover, the peptide dimer formation result in data set [9] is “form peptide dimers”. Further, the “IRF4 MFI at highest peptide dose” value in the data set on P14 CD8+ T cells [6] (1 uM peptide, P14 CD8+ T cells, 41C versus 41CGI) was “did not observe a difference between 41C and 41CGI”. For the same sequence, the “IRF4 MFI at low peptide doses” value in the data set on P14 CD8+ T cells [6] is listed as “difference in IRF4 MFI”. For the same sequence, the IRF4 expression result in the data set with polyclonal CD8+ T cells [10] (polyclonal CD8 T cells, 1 uM, 41M versus 41C (Figures 6E-I)) was “only a slight difference between 41M and 41C”. Moreover, the “mean population 2D affinity (AcKa)” value in data set [7] is listed as 6.62E-04 μm^4. In data set [8], the “normalized adhesion bonds, mean bond number (-ln(1-Pa(s))/mpMHC)” value came out at 1.01E-01 μm^2 and the “total bond number hierarchy” value is 41M> 41C> 41CGI.

Take KAVYNFATM [41M]: in data set [1], the “peak bond lifetime under force, CD8-null” value was ~ 0.8 s; the “bond lifetime by BFP for the TCR alone” value lay within 0.8 to 0.9 s; the “bond lifetime at ~10 pN, CD8-null” value was “no significant difference in bond lifetime between 41M and 41C”. In the data set with P14 CD8+ T cells [2], the “double producers of IFNγ and TNF” value is listed as “significantly higher frequency”; the sensitivity to antigen result is reported as “same sensitivity to antigen”; the “triple producers of IFNγ, TNF and IL-2” value is reported as “significantly higher frequency”. Besides, in the data set with P14 CD8+ T cells [2] (P14 cells, range of peptide doses, 6 h ex vivo (Figures 5A,B)), the IFNγ production result is “produced the most IFNγ”. In addition, in the data set with P14 CD8+ T cells [2] (by 2D affinity measures and functionality), the agonist classification result is “super agonist peptide variant”. For the same sequence, in the data set with polyclonal CD8+ T cells [3], the “frequency of Nur77 expression” value is “increased frequencies of Nur77 expression”. The “transition to phase two T cell:DC contacts” value in data set [11] was “transitioned more quickly to phase two”. Besides, at P14 TCR (ref [50], read-out: KD (3D affinity, SPR)), the Kd was 17 µM. Moreover, the Kd at P14 TCR (ref [51], read-out: KD (3D affinity, SPR)) is 9.1 µM. Also, the Kd on P14 TCR (ref [52], read-out: KD (3D affinity, SPR)) was 2.3 µM. Further, the “bond lifetime by SPR” value in the data set on P14 TCR (ref [51]) is on record as ~ 0.5 s. Also, in [4], the “peak bond lifetime under force, CD8-intact” value is ~ 3.0 s; the “bond lifetime at ~10 pN, CD8-intact” value is “no significant difference in bond lifetime between 41M and 41C”. In the data set on P14 CD8+ T cells [5] (P14 CD8+ T cells re-stimulated ex vivo), the “peptide dose at which Nur77 MFI peaks” value was 0.31 µM. In the data set on P14 CD8+ T cells [5] (setting [13]), the “Nur77 MFI” value is “higher MFI (peaking at 0.31 uM) than 41C and dramatically more so than 41CGI”; the “%Nur77+” value is reported as “higher percentage of CD8+ T cells re-stimulated with 41M expressed Nur77”. Besides, in the data set on P14 CD8+ T cells [5], the “signal strength as measured by Nur77 upregulation” value is listed as “stronger signal than 41C; also recorded: significantly stronger signals than 41CGI stimulated cells” and the ligand potency came to 41M > 41C > 41CGI. Also, the “IRF4 MFI at low peptide doses” value with P14 CD8+ T cells [6] is on record as “difference in IRF4 MFI”. For the same sequence, in the data set with polyclonal CD8+ T cells [10], the IRF4 expression result was “only a slight difference between 41M and 41C”. In addition, in data set [7], the “mean population 2D affinity (AcKa)” value was determined as 1.04E-03 μm^4 and the “2D affinity, result in words” value is recorded as “highest 2D affinity”. Also, in data set [8], the “normalized adhesion bonds, mean bond number (-ln(1-Pa(s))/mpMHC)” value was 6.40E-01 μm^2 and the “total bond number hierarchy” value stood at 41M> 41C> 41CGI.
